In patent publication US20240382629A1, “HETEROBIVALENT AND HOMOBIVALENT AGENTS TARGETING FIBROBLAST ACTIVATION PROTEIN ALPHA AND/OR PROSTATE-SPECIFIC MEMBRANE ANTIGEN” (The Johns Hopkins University, priority 2021, published 2024):
Blank lines part the entries; values can stand above or below the compound they belong to.

Test system: U87 tumor
Experiment: PET imaging and tissue biodistribution in U87 tumor-bearing mice
Format: in vivo, mouse
Set-up: Biodistribution: Saliv. Gland: unit not given here
Description: Cell uptake assays, flow cytometry, and IHC were performed as described previously. Banerjee et al., 2019; Nimmagadda et al., 2018. PET imaging and biodistribution Sequential PET imaging and biodistribution studies were conducted to quantify and validate PET imaging data. Briefly, tumor-bearing mice were administrated approximately 7.4 MBq of radiotracer in 150 μL saline via tail-vein injection. They were randomized into the indicated groups of 3-4 mice before radiotracer injection.
In Experiment 1, bilateral xenografts of U87 (right flank) and PSMA+ PC3 PIP (left flank) tumors were established in male NSG mice (n=3), which underwent imaging followed by biodistribution over 24 h. […] A biodistribution study was further conducted with U87 tumors at 2 h post-injection (n=3) to compare the tissue distribution properties of ^64Cu-FP-L1 and ^64Cu-FAPI-04.

[1] = untitled table, radiolabel and time not given
[2] = untitled table, radiolabel and time not given, in %ID/g
[3] = head-to-head, 1 h, dose 20 μCi, n=5/group (FAPI-04 n = 3)
[4] = 2 h + 10 nmol Sri-06-98, dose 200 μCi, n=3, in %ID/g
[5] = 2 h, dose 200 μCi, n=3, in %ID/g
[6] = 4 h, dose 200 μCi, n=3, in %ID/g

Compound: N#CC1CCCN1C(=O)CNC(=O)c1ccnc2ccc(OCCCNC(=O)CCc3cn(CC[C@H](NC(=O)c4ccc(F)nc4)C(=O)NCCNC(=O)CN4CCN(CC(=O)O)CCN(CC(=O)O)CCN(CC(=O)O)CC4)nn3)cc12 (stereo partly shown) [SRI-07-56]
Biodistribution: Saliv. Gland [1]: 7.59 ± 3.44 | Biodistribution: Bladder [2]: 7.14 ± 3.21 | Biodistribution: Blood [2]: 20.47 ± 8.29 | Biodistribution: Bone [2]: 4.47 ± 1.71 | Biodistribution: Fat [2]: 0.49 ± 0.23 | Biodistribution: Heart [2]: 7.16 ± 3.22 | Biodistribution: Kidney [2]: 5.16 ± 2.02 | Biodistribution: Lacrim Gland [2]: 4.32 ± 1.56 | Biodistribution: Liver [2]: 6.87 ± 2.54 | Biodistribution: Lung [2]: 10.70 ± 4.41 | Biodistribution: Muscle [2]: 2.06 ± 0.95 | Biodistribution: Pancreas [2]: 10.62 ± 3.62 | Biodistribution: Sm Intest [2]: 9.55 ± 3.91 | Biodistribution: Spleen [2]: 4.21 ± 1.74 | Biodistribution: Stomach [2]: 3.73 ± 1.63 | Biodistribution: U87 [2]: 5.67 ± 2.42

Compound: N#C[C@@H]1CCCN1C(=O)CNC(=O)c1ccnc2ccc(OCCCNC(=O)C(CCNC(=O)c3ccc(F)nc3)NC(=O)CN3CCN(CC(=O)O)CCN(CC(=O)O)CCN(CC(=O)O)CC3)cc12 (stereo partly shown) [SRI-08-15]
Biodistribution: Saliv. Gland [1]: 8.95 ± 0.98 | Biodistribution: Bladder [2]: 1.67 ± 0.32 | Biodistribution: Blood [2]: 3.92 ± 0.39 | Biodistribution: Bone [2]: 5.97 ± 1.02 | Biodistribution: Fat [2]: 0.92 ± 0.21 | Biodistribution: Heart [2]: 1.97 ± 0.34 | Biodistribution: Kidney [2]: 2.65 ± 0.27 | Biodistribution: Lacrim Gland [2]: 8.01 ± 1.01 | Biodistribution: Liver [2]: 2.73 ± 0.64 | Biodistribution: Lung [2]: 2.90 ± 0.24 | Biodistribution: Muscle [2]: 3.03 ± 0.63 | Biodistribution: Pancreas [2]: 7.33 ± 1.73 | Biodistribution: Sm Intest [2]: 3.85 ± 0.77 | Biodistribution: Spleen [2]: 1.59 ± 0.57 | Biodistribution: Stomach [2]: 1.42 ± 0.56 | Biodistribution: U87 [2]: 20.41 ± 3.28

Compound: N#C[C@@H]1CCCN1C(=O)CNC(=O)c1ccnc2ccc(OCCCNC(=O)CCOCCOCCOCCNC(=O)C(CCNC(=O)c3ccc(F)nc3)NC(=O)CN3CCN(CC(=O)O)CCN(CC(=O)O)CCN(CC(=O)O)CC3)cc12 (stereo partly shown) [SRI-08-27]
Biodistribution: Saliv. Gland [1]: 6.40 ± 1.30 | Biodistribution: Bladder [2]: 1.18 ± 0.13 | Biodistribution: Blood [2]: 12.65 ± 2.31 | Biodistribution: Bone [2]: 2.83 ± 0.36 | Biodistribution: Fat [2]: 0.45 ± 0.16 | Biodistribution: Heart [2]: 5.39 ± 1.11 | Biodistribution: Kidney [2]: 3.98 ± 0.66 | Biodistribution: Lacrim Gland [2]: 4.62 ± 1.02 | Biodistribution: Liver [2]: 5.15 ± 0.75 | Biodistribution: Lung [2]: 7.76 ± 1.31 | Biodistribution: Muscle [2]: 1.55 ± 0.43 | Biodistribution: Pancreas [2]: 7.20 ± 3.00 | Biodistribution: Sm Intest [2]: 6.28 ± 2.63 | Biodistribution: Spleen [2]: 2.59 ± 0.49 | Biodistribution: Stomach [2]: 1.83 ± 0.66 | Biodistribution: U87 [2]: 6.56 ± 1.76

Compound: N#CC1CCCN1C(=O)CNC(=O)c1ccnc2ccc(OCCCNC(=O)CCc3cn(CCCC[C@H](NC(=O)c4ccc(F)nc4)C(=O)NCCNC(=O)CN4CCN(CC(=O)O)CCN(CC(=O)O)CCN(CC(=O)O)CC4)nn3)cc12 (stereo partly shown) [SRI-08-35]
Biodistribution: Saliv. Gland [1]: 7.49 ± 1.17 | Biodistribution: Bladder [2]: 1.59 ± 0.32 | Biodistribution: Blood [2]: 15.40 ± 1.08 | Biodistribution: Bone [2]: 3.75 ± 0.43 | Biodistribution: Fat [2]: 0.56 ± 0.20 | Biodistribution: Heart [2]: 7.04 ± 0.93 | Biodistribution: Kidney [2]: 5.47 ± 0.73 | Biodistribution: Lacrim Gland [2]: 5.27 ± 1.52 | Biodistribution: Liver [2]: 6.13 ± 0.67 | Biodistribution: Lung [2]: 9.40 ± 1.61 | Biodistribution: Muscle [2]: 1.94 ± 0.74 | Biodistribution: Pancreas [2]: 10.46 ± 2.88 | Biodistribution: Sm Intest [2]: 8.20 ± 2.20 | Biodistribution: Spleen [2]: 3.08 ± 0.27 | Biodistribution: Stomach [2]: 2.17 ± 0.30 | Biodistribution: U87 [2]: 7.84 ± 1.95

Continued, values first:

Biodistribution: Saliv. Gland [1]: 11.70 ± 1.32 | Biodistribution: Bladder [2]: 4.28 ± 4.14 | Biodistribution: Blood [2]: 4.59 ± 0.50 | Biodistribution: Bone [2]: 6.37 ± 0.98 | Biodistribution: Fat [2]: 1.04 ± 0.55 | Biodistribution: Heart [2]: 2.24 ± 1.02 | Biodistribution: Kidney [2]: 2.82 ± 0.06 | Biodistribution: Lacrim Gland [2]: 9.11 ± 2.71 | Biodistribution: Liver [2]: 2.02 ± 0.13 | Biodistribution: Lung [2]: 2.96 ± 0.38 | Biodistribution: Muscle [2]: 2.74 ± 0.18 | Biodistribution: Pancreas [2]: 6.76 ± 1.47 | Biodistribution: Sm Intest [2]: 3.36 ± 0.76 | Biodistribution: Spleen [2]: 1.45 ± 0.17 | Biodistribution: Stomach [2]: 1.85 ± 0.19 | Biodistribution: U87 [2]: 20.43 ± 1.73
Compound: N#C[C@@H]1CCCN1C(=O)CNC(=O)c1ccnc2ccc(OCCCN3CC4CN(C(=O)C(CCNC(=O)c5ccc(F)nc5)NC(=O)CN5CCN(CC(=O)O)CCN(CC(=O)O)CCN(CC(=O)O)CC5)CC4C3)cc12 (stereo partly shown) [SRI-08-37]

Biodistribution: Bladder [3]: 3.51 ± 0.30 % ID/g | Biodistribution: Blood [3]: 2.48 ± 0.87 % ID/g | Biodistribution: Bone [3]: 7.94 ± 0.78 % ID/g | Biodistribution: Fat [3]: 0.48 ± 0.43 % ID/g | Biodistribution: Heart [3]: 1.16 ± 0.28 % ID/g | Biodistribution: Kidney [3]: 3.83 ± 2.31 % ID/g | Biodistribution: Lacrimal gland [3]: 5.17 ± 1.51 % ID/g | Biodistribution: Liver [3]: 1.69 ± 0.83 % ID/g | Biodistribution: Lung [3]: 2.48 ± 0.64 % ID/g | Biodistribution: Muscle [3]: 2.05 ± 0.84 % ID/g | Biodistribution: Pancreas [3]: 2.09 ± 1.12 % ID/g | Biodistribution: Salivary Gland [3]: 4.42 ± 0.55 % ID/g | Biodistribution: Small Intestine [3]: 3.80 ± 2.06 % ID/g | Biodistribution: Spleen [3]: 1.23 ± 0.41 % ID/g | Biodistribution: Stomach [3]: 1.29 ± 0.45 % ID/g | Biodistribution: U87 [3]: 11.42 ± 1.11 % ID/g
Compound: N#C[C@@H]1CCCN1C(=O)CNC(=O)c1ccnc2ccc(OCCCNC(=O)CCc3cn(CCCC[C@H](NC(=O)CN4CCN(CC(=O)O)CCN(CC(=O)O)CC4)C(=O)NCCCOc4ccc5nccc(C(=O)NCC(=O)N6CCC[C@H]6C#N)c5c4)nn3)cc12 [^64Cu-FAPI-74, metal not drawn, reference compound]

Biodistribution: Bladder [4]: 5.61 ± 7.96 | Biodistribution: Blood [4]: 0.27 ± 0.08 | Biodistribution: Bone [4]: 0.59 ± 0.65 | Biodistribution: Fat [4]: 0.07 ± 0.02 | Biodistribution: Heart [4]: 0.17 ± 0.01 | Biodistribution: Kidney [4]: 1.57 ± 0.00 | Biodistribution: Lacrimal gland [4]: 0.16 ± 0.02 | Biodistribution: Liver [4]: 0.68 ± 0.16 | Biodistribution: Lung [4]: 0.49 ± 0.01 | Biodistribution: Muscle [4]: 0.09 ± 0.02 | Biodistribution: Pancreas [4]: 0.21 ± 0.04 | Biodistribution: Salivary Glands [4]: 0.34 ± 0.02 | Biodistribution: Small Intestine [4]: 0.54 ± 0.08 | Biodistribution: Spleen [4]: 0.25 ± 0.01 | Biodistribution: Stomach [4]: 0.31 ± 0.02 | Biodistribution: U87 [4]: 2.70 ± 1.00 | Biodistribution: Bladder [5]: 1.63 ± 0.23 | Biodistribution: Blood [5]: 3.49 ± 0.18 | Biodistribution: Bone [5]: 2.91 ± 0.36 | Biodistribution: Fat [5]: 0.47 ± 0.02 | Biodistribution: Heart [5]: 3.70 ± 0.22 | Biodistribution: Kidney [5]: 2.00 ± 0.52 | Biodistribution: Lacrimal gland [5]: 5.07 ± 2.20 | Biodistribution: Liver [5]: 2.80 ± 0.31 | Biodistribution: Lung [5]: 2.62 ± 0.11 | Biodistribution: Muscle [5]: 2.46 ± 0.20 | Biodistribution: Pancreas [5]: 4.59 ± 2.38 | Biodistribution: Salivary Glands [5]: 8.88 ± 1.37 | Biodistribution: Small Intestine [5]: 2.97 ± 0.33 | Biodistribution: Spleen [5]: 1.51 ± 0.14 | Biodistribution: Stomach [5]: 2.09 ± 1.00 | Biodistribution: U87 [5]: 7.64 ± 2.12 | Biodistribution: Bladder [6]: 5.56 ± 1.53 | Biodistribution: Blood [6]: 2.54 ± 0.37 | Biodistribution: Bone [6]: 2.69 ± 0.14 | Biodistribution: Fat [6]: 0.50 ± 0.12 | Biodistribution: Heart [6]: 2.40 ± 0.12 | Biodistribution: Kidney [6]: 1.67 ± 0.03 | Biodistribution: Lacrimal gland [6]: 4.54 ± 0.44 | Biodistribution: Liver [6]: 2.68 ± 0.08 | Biodistribution: Lung [6]: 2.04 ± 0.10 | Biodistribution: Muscle [6]: 2.13 ± 0.14 | Biodistribution: Pancreas [6]: 4.54 ± 0.62 | Biodistribution: Salivary Glands [6]: 5.92 ± 0.57 | Biodistribution: Small Intestine [6]: 2.69 ± 0.42 | Biodistribution: Spleen [6]: 1.14 ± 0.16 | Biodistribution: Stomach [6]: 1.60 ± 0.36 | Biodistribution: U87 [6]: 11.15 ± 1.49
Compound: N#C[C@@H]1CCCN1C(=O)CNC(=O)c1ccnc2ccc(OCCCNC(=O)CCc3cn(CCCC[C@H](NC(=O)CN4CCN(CC(=O)O)CCN(CC(=O)O)CC4)C(=O)NCCCOc4ccc5nccc(C(=O)NCC(=O)N6CCC[C@H]6C#N)c5c4)nn3)cc12 [^64Cu-Sri-06-98, metal not drawn]

Biodistribution: Bladder [3]: 5.55 ± 4.26 % ID/g | Biodistribution: Blood [3]: 2.54 ± 0.90 % ID/g | Biodistribution: Bone [3]: 2.84 ± 0.83 % ID/g | Biodistribution: Fat [3]: 0.31 ± 0.08 % ID/g | Biodistribution: Heart [3]: 1.04 ± 0.28 % ID/g | Biodistribution: Kidney [3]: 4.00 ± 1.28 % ID/g | Biodistribution: Lacrimal gland [3]: 3.53 ± 2.93 % ID/g | Biodistribution: Liver [3]: 1.97 ± 0.36 % ID/g | Biodistribution: Lung [3]: 2.02 ± 0.93 % ID/g | Biodistribution: Muscle [3]: 1.65 ± 1.10 % ID/g | Biodistribution: Pancreas [3]: 1.89 ± 0.57 % ID/g | Biodistribution: Salivary Gland [3]: 2.77 ± 0.53 % ID/g | Biodistribution: Small Intestine [3]: 3.15 ± 1.34 % ID/g | Biodistribution: Spleen [3]: 1.13 ± 0.42 % ID/g | Biodistribution: Stomach [3]: 1.26 ± 0.45 % ID/g | Biodistribution: U87 [3]: 6.55 ± 1.41 % ID/g
Compound: N#CC1CCCN1C(=O)CNC(=O)c1ccnc2ccc(OCCCN3CC4CN(C(=O)CN5CCN(CC(=O)O)CCN(CC(=O)O)CC5)CC4C3)cc12 (stereo not shown) [^64Cu-Sri-07-86, metal not drawn]
